The values below come from patent US9458093B2, “Compositions for the treatment of hypertension and/or fibrosis” (Vectus Biosystems Limited, priority 2013, dated 2016).

In series [1] the test system is SHR on 2.2% salt diet. Kind of series: Oral study: systolic blood pressure by tail cuff plethysmography in SHR on 2.2% salt diet. Type of series: in vivo, rat. The text has this:
(§1) Fourteen week old SHR (on a 2.2% salt diet; Glen Forrest Stockfeeders) were randomly assigned to zero time control, VB0004 treatment (10, 100, 500, 1,000 and 2,500 pmol/kg/min) in the drinking solution or control drinking solution (5% ethanol in deionised distilled water (n=5 each group). The rats assigned to zero time control group were anaesthetised and had their heart and kidneys harvested while rats assigned to control and VB0004 treatment were weighed twice weekly and had their drinking solution intake monitored to allow adjustment of the VB0004 concentration in the drinking solution to maintain a constant dose over the 4, 6 or 8 weeks study periods. Blood pressure was measured twice weekly by tail cuff plethysmography (PowerLab, ADInstruments, Castle Hill, NSW, Australia). After 4, 6 or 8 weeks rats were anaesthetised, and their heart and kidneys harvested for quantitation of fibrosis.

The test system of series [2] is SHR on 2.2% salt diet. In words: Oral study: fibrosis quantitation in kidney (Masson's trichrome) of SHR on 2.2% salt diet. The format is in vivo, rat.
Description: as §1, with “fibrosis. To quantitate fibrosis, tissue slices ≦3 mm thick were fixed in 10% buffered formalin for 24 hours, processed and embedded in paraffin. […] A minimum of 20 random fields at magnification ×20 from transverse sections (5 at each of 2 levels) were digitized and the degree of fibrosis determined as a percent of field area of each digitized image using Image-Pro Plus V.5 (Media Cybernetics, Bethesda, Md., USA) then averaged to determine the level of fibrosis for tissue for each rat.” for “fibrosis.”

Series [3] has as its system SHR on 2.2% salt diet. In words: Intravenous infusion study: systolic blood pressure by tail cuff plethysmography in SHR on 2.2% salt diet. Type of series: in vivo, rat. The following applies: intravenous 10 and 20 pmol/kg/min, 4 weeks, FIG. 6. Here is the method:
Fourteen week old SHR (on a 2.2% salt diet; Glen Forrest Stockfeeders) were randomly assigned to zero time control, VB0004 infusion (10 and 20 pmol/kg/min) or vehicle (20% DMSO in normal saline, Baxter Healthcare, Sydney NSW Australia) infusion (n=5 each group). […] Blood pressure was measured twice weekly by tail cuff plethysmography (PowerLab, ADInstruments, Castle Hill, NSW, Australia). After 4 weeks rats were again anaesthetised, their heart and kidneys harvested for quantitation of fibrosis.

Series [4] has as its system SHR on 2.2% salt diet. Kind of series: Oral study: fibrosis quantitation in heart (Masson's trichrome) of SHR on 2.2% salt diet. Type of series: in vivo, rat.
Description: as §1, with “fibrosis. To quantitate fibrosis, tissue slices ≦3 mm thick were fixed in 10% buffered formalin for 24 hours, processed and embedded in paraffin. […] A minimum of 20 random fields at magnification ×20 from transverse sections (5 at each of 2 levels) were digitized and the degree of fibrosis determined as a percent of field area of each digitized image using Image-Pro Plus V.5 (Media Cybernetics, Bethesda, Md., USA) then averaged to determine the level of fibrosis for tissue for each rat.” for “fibrosis.”

For series [5], the system named is A10 embryonic vascular smooth muscle cells. In words: xCELLigence cellular impedance (cell index), A10 vascular smooth muscle cells. The format is cell-based. The following applies: 62.5, 125 and 250 μM, FIG. 3. Here is the method: The xCELLigence SP system (Roche) was used to measure changes in cellular impedance (cell index) following the treatment of A10 embryonic vascular smooth muscle cells (ATCC, CRL-1476) with VB0004. This in vitro assay was correlated with blood pressure data obtained in the animal model described below in Example 3, so that it can be used for faster screening of larger number of compounds. […]
Briefly, 50 μl of cell culture medium (DMEM low glucose supplemented with 10% fetal bovine serum at 37° C.) was added to each well of an E-Plate 96 (Roche), and the background impedance in each well was measured. […] Cell index was monitored for each well of the E-Plate 96 in RTCA SP Station within the cell culture incubator. After overnight incubation for 16-20 hours at 5% CO2 and 95% humidity, 100 μl of VB0004 solution (VB0004 was prepared in DMSO and diluted with cell culture medium to a final DMSO concentration of 0.25%) was added to the appropriate wells of the E-Plate 96 and cell index values were measured immediately following compound treatment every 20 seconds for 3 hours. […]

In series [6] the test system is bovine aortic endothelial cells. Kind of series: xCELLigence cellular impedance (cell index), bovine aortic endothelial cells. The format is cell-based. The following applies: 62.5, 125 and 250 μM, FIG. 5. Here is the method: Briefly, 50 μl of cell culture medium (DMEM low glucose supplemented with 10% fetal bovine serum at 37° C.) was added to each well of an E-Plate 96 (Roche), and the background impedance in each well was measured. 50 μl of A-10 cell suspension (10,000 cells/well) was then added to the appropriate wells of the E-Plate 96. Cell index was monitored for each well of the E-Plate 96 in RTCA SP Station within the cell culture incubator. After overnight incubation for 16-20 hours at 5% CO2 and 95% humidity, 100 μl of VB0004 solution (VB0004 was prepared in DMSO and diluted with cell culture medium to a final DMSO concentration of 0.25%) was added to the appropriate wells of the E-Plate 96 and cell index values were measured immediately following compound treatment every 20 seconds for 3 hours. Cell index value is baseline-corrected by subtracting the cell index of vehicle-treated cells and normalized by dividing by the cell index at the time point immediately before compound addition. Baseline normalized cell index as a function of time is plotted using Roche RTCA software.
The xCELLigence SP system (Roche) was also used to measure changes in cellular impedance (cell index) following the treatment of bovine aortic endothelial cells (European Collection of Cell Cultures) with test compound. […]

Molecules are shown by their SMILES.

`NC(=O)CCc1cc(-c2ccccc2)ccc1-c1cccc(O)c1` [VB0004, 2′-[3-Hydroxy-(1,1′:4′,1″-terphenyl)]propanamide] displayed a melting point of 167.2 to 168.9 °C. The “mean systolic blood pressure over time” value in the series on SHR on 2.2% salt diet [1] (2,500 pmol/kg/min orally, up to 8 weeks, FIG. 8) was “continued to decrease with time”. Moreover, the “mean systolic blood pressure compared to controls” value in the series on SHR on 2.2% salt diet [1] (10, 100 and 500 pmol/kg/min orally, 4 weeks, FIG. 4) is given as “decreased blood pressure compared to controls”. Further, the “mean systolic blood pressure compared with controls, dose dependence” value with SHR on 2.2% salt diet [1] (10 to 2,500 pmol/kg/min orally, 4 weeks, FIG. 7) was “decreased blood pressure with increased dose compared with controls”. Besides, the “fibrosis in the kidney” value in the series with SHR on 2.2% salt diet [2] (18 week old SHR, 10 to 500 pmol/kg/min orally, 4 weeks, vs 14 and 18 week controls, FIG. 10) was “decreased compared with fibrosis in 14 and 18 week controls”. Also, the “fibrous tissue in kidney sections (micrographs, Masson's trichrome)” value in the series on SHR on 2.2% salt diet [2] (SHR, 500 pmol/kg/min for four weeks, FIG. 12) is “virtually no fibrous tissue is present”. Further, the “decrease in SBP compared with vehicle control” value in the series with SHR on 2.2% salt diet [3] amounted to 20 mmHg. Besides, the “fibrosis in the heart” value in the series on SHR on 2.2% salt diet [4] (18 week old SHR, 10 to 500 pmol/kg/min orally, 4 weeks, vs 14 and 18 week controls, FIG. 9) was “decreased compared with fibrosis in 14 and 18 week controls”. Also, in the series with SHR on 2.2% salt diet [4] (SHR, 500 pmol/kg/min for four weeks, FIG. 11), the “fibrous tissue in heart sections (micrographs, Masson's trichrome)” value is listed as “virtually no fibrous tissue is present”. Besides, in series [5], the “impedance response (cell index)” value is reported as “negative impedance response”. Further, in series [6], the “impedance response (cell index)” value was “negative impedance response”.

The melting point is the temperature, or range, at which the solid turns liquid.
